Broadly, the IC50 is the concentration needed to halve the response being measured. Higher therefore signals lower potency. Usually pIC50 stands for the IC50 on a negative log10 scale, so that one unit is a factor of ten. The low end stands for a large IC50, the high end for a small IC50.

pIC50: −log10 of the molar value.

This test can be described thus: On day 0 cells were seeded in 30 μL media into each well of 384-well cell culture plates. The seeding density was 8000 cells/well. On day 1, cells were treated with 30 nL DMSO or 30 nL of 3-fold serially DMSO-diluted compounds (10 points in duplicates with 1 μM as final top dose). Subsequently plates were incubated for 6 hours in a standard tissue culture incubator and equilibrated at room temperature for 15 minutes. Nanoluciferase activity was measured by adding 15 μL of freshly prepared Nano-Glo Luciferase Assay Reagent (Promega N1130), shaking the plates for 10 minutes and reading the bioluminescence using an EnVision reader. Type of test: cell-based.
For the molecule `COc1cc(-c2cn(C)c(=O)c3cnccc23)cc(OC)c1CN1CC2(CCN(C(=O)CCOCCOc3cccc4c3C(=O)N(C3CCC(=O)NC3=O)C4=O)CC2)C1` (stereo not given), the IC50 result is “in the range around 550 nM”.
For `COc1cc(-c2cn(C)c(=O)c3cnccc23)cc(OC)c1CN1CCC2(C[C@@H]2NC(=O)CCOCCOc2ccc3c(c2)C(=O)N(C2CCC(=O)NC2=O)C3=O)C1` (stereo not given in full), the half-inhibitory concentration (IC50) result was “in the range around 55 nM”.
Turning to `COc1cc(-c2cn(C)c(=O)c3cnccc23)cc(OC)c1CN(C)CCc1cn(CCCCCOc2ccc3c(c2)C(=O)N(C2CCC(=O)NC2=O)C3=O)nn1` (stereo not given), the pIC50 was greater than 8.00.
With `COc1cc(-c2cn(C)c(=O)c3cnccc23)cc(OC)c1CN1CC[C@H]1C(=O)NCCN(C)CCNc1cccc2c1C(=O)N(C1CCC(=O)NC1=O)C2=O` (stereo not given in full), the concentration for half-maximal inhibition (IC50) entry is “in the range around 550 nM”.
As to `COc1cc(-c2cn(C)c(=O)c3cnccc23)cc(OC)c1CN(C)CC1CC2(CCN(C(=O)CCOCCOc3ccc4c(c3)C(=O)N(C3CCC(=O)NC3=O)C4=O)CC2)O1` (stereo not given), the negative logarithm of the IC50 (pIC50) is greater than 8.00.
Molecule `COc1cc(-c2cn(C)c(=O)c3cnccc23)cc(OC)c1ON1CCC2(CCN(C(=O)CCOCCOc3cccc4c3C(=O)N(C3CCC(=O)NC3=O)C4=O)CC2)C1` (stereo not given) had a pIC50 greater than 8.00.
For the molecule `COc1cc(-c2cn(C)c(=O)c3cnccc23)cc(OC)c1CN1CCC(OCc2cn(CCOCCOc3ccc4c(c3)C(=O)N(C3CCC(=O)NC3=O)C4=O)nn2)CC1` (stereo not given), the concentration for half-maximal inhibition (IC50) result was “in the range around 55 nM”.
For `COc1cc(-c2cn(C)c(=O)c3cnccc23)cc(OC)c1CN1CCC2(C[C@@H]2NC(=O)CCOCCOc2cccc3c2C(=O)N(C2CCC(=O)NC2=O)C3=O)C1` (stereo not given in full), the concentration for half-maximal inhibition (IC50) result was “in the range around 550 nM”.
Regarding `COc1cc(-c2cn(C)c(=O)c3cnccc23)cc(OC)c1CN(C)Cc1cn(CCOc2ccc3c(c2)C(=O)N(C2CCC(=O)NC2=O)C3=O)nn1` (stereo not given), the half-maximal inhibitory concentration (IC50) result is “in the range around 550 nM”.
As for `COc1cc(-c2cn(C)c(=O)c3cnccc23)cc(OC)c1CN(C)C1CCC12CCN(C(=O)CCOCCOc1ccc3c(c1)C(=O)N(C1CCC(=O)NC1=O)C3=O)CC2` (stereo not given), the negative logarithm of the IC50 (pIC50) is greater than 8.00.
For the molecule `COc1cc(-c2cn(C)c(=O)c3cnccc23)cc(OC)c1CN(C)Cc1cn(CCCCOc2ccc3c(c2)C(=O)N(C2CCC(=O)NC2=O)C3=O)nn1` (stereo not given), the half-maximal inhibitory concentration (IC50) result was “in the range around 55 nM”.
In the case of `COc1cc(-c2cn(C)c(=O)c3cnccc23)cc(OC)c1CN(C)CC12CC(C(=O)NCCOCCOCCNc3cccc4c3C(=O)N(C3CCC(=O)NC3=O)C4=O)(C1)C2` (stereo not given), the concentration for half-maximal inhibition (IC50) result is “in the range around 550 nM”.
Turning to `COc1cc(-c2cn(C)c(=O)c3cnccc23)cc(OC)c1CN(C)C1CCC2CN(C(=O)CCOCCOc3ccc4c(c3)C(=O)N(C3CCC(=O)NC3=O)C4=O)CC21` (stereo not given), the negative-log IC50 (pIC50) was greater than 8.00.
Take `COc1cc(-c2cn(C)c(=O)c3cnccc23)cc(OC)c1CN1CC[C@@H]1C(=O)NCCCCCCCCNc1cccc2c1C(=O)N(C1CCC(=O)NC1=O)C2=O` (stereo not given in full): the pIC50 is greater than 8.00.
With `COc1cc(-c2cn(C)c(=O)c3cnccc23)cc(OC)c1CN(C)CCCOCCN1CCN(c2ccc3c(c2)C(=O)N(C2CCC(=O)NC2=O)C3=O)CC1` (stereo not given), the IC50 entry was “in the range around 55 nM”.
As to `COc1cc(-c2cn(C)c(=O)c3cnccc23)cc(OC)c1CN1CCN(C(=O)COc2cccc3c2C(=O)N(C2CCC(=O)NC2=O)C3=O)CC1` (stereo not given), the negative logarithm of the IC50 (pIC50) was greater than 8.00.
Consider `COc1cc(-c2cn(C)c(=O)c3cnccc23)cc(OC)c1CN(C)CCc1cn(CCCCOc2ccc3c(c2)C(=O)N(C2CCC(=O)NC2=O)C3=O)nn1` (stereo not given), for which the IC50 result is “in the range around 55 nM”.
Regarding `COc1cc(-c2cn(C)c(=O)c3cnccc23)cc(OC)c1CN1CCCC(OCc2cn(-c3ccc4c(c3)C(=O)N(C3CCC(=O)NC3=O)C4=O)nn2)C1` (stereo not given), the IC50 entry is “in the range around 550 nM”.
Turning to `COc1cc(-c2cn(C)c(=O)c3cnccc23)cc(OC)c1CN1CCC(C2CCN(C(=O)CCOCCOc3cccc4c3C(=O)N(C3CCC(=O)NC3=O)C4=O)C2)CC1` (stereo not given), the IC50 result is “in the range around 55 nM”.
Take `COc1cc(-c2cn(C)c(=O)c3cnccc23)cc(OC)c1CN(C)CCc1cn(CCCOc2ccc3c(c2)C(=O)N(C2CCC(=O)NC2=O)C3O)nn1` (stereo not given): the concentration for half-maximal inhibition (IC50) result was “in the range around 550 nM”.
Regarding `COc1cc(-c2cn(C)c(=O)c3cnccc23)cc(OC)c1CN(C)CC(=O)N1CCC(C2CCN(C(=O)COc3cccc4c3C(=O)N(C3CCC(=O)NC3=O)C4=O)CC2)CC1` (stereo not given), the concentration for half-maximal inhibition (IC50) result is “in the range around 55 nM”.
With `COc1cc(-c2cn(C)c(=O)c3cnccc23)cc(OC)c1CN1CC(OCc2cn(CCCOc3ccc4c(c3)C(=O)N(C3CCC(=O)NC3=O)C4=O)nn2)C1` (stereo not given), the IC50 result is “in the range around 550 nM”.
`COc1cc(-c2cn(C)c(=O)c3cnccc23)cc(OC)c1CN(C)CC(=O)NCCCCN1CCOC2(CCN(c3ccc4c(c3)C(=O)N(C3CCC(=O)NC3=O)C4=O)CC2)C1` (stereo not given): the negative-log IC50 (pIC50) is greater than 8.00.
As to `COc1cc(-c2cn(C)c(=O)c3cnccc23)cc(OC)c1CN(C)CC1CC12CCN(C(=O)CCOCCOc1ccc3c(c1)C(=O)N(C1CCC(=O)NC1=O)C3=O)CC2` (stereo not given), the half-inhibitory concentration (IC50) entry was “in the range around 55 nM”.
On to `COc1cc(-c2cn(C)c(=O)c3cnccc23)cc(OC)c1CN1CC(C)(C(=O)NCCCCCCCCNc2cccc3c2C(=O)N(C2CCC(=O)NC2=O)C3=O)C1` (stereo not given), for which the pIC50 is greater than 8.00.
As for `COc1cc(-c2cn(C)c(=O)c3cnccc23)cc(OC)c1CN(C)CC1CC2(CCN(C(=O)CCOCCOc3cccc4c3C(=O)N(C3CCC(=O)NC3=O)C4=O)CC2)C1` (stereo not given), the IC50 result is “in the range around 55 nM”.
In the case of `COc1cc(-c2cn(C)c(=O)c3cnccc23)cc(OC)c1CN1CC(C(=O)NCCCCCNc2cccc3c2C(=O)N(C2CCC(=O)NC2=O)C3=O)C1` (stereo not given), the pIC50 was greater than 8.00.
As for `COc1cc(-c2cn(C)c(=O)c3cnccc23)cc(OC)c1CN(C)C1CCC12CCN(C(=O)CCOCCOc1cccc3c1C(=O)N(C1CCC(=O)NC1=O)C3=O)CC2` (stereo not given), the IC50 entry was “in the range around 55 nM”.
`COc1cc(-c2cn(C)c(=O)c3cnccc23)cc(OC)c1CN1CCC2(CCN(C(=O)CCOCCOc3cccc4c3C(=O)N(C3CCC(=O)NC3=O)C4=O)C2)C1` (stereo not given) gave a pIC50 greater than 8.00.
As to `COc1cc(-c2cn(C)c(=O)c3cnccc23)cc(OC)c1CN1CC(S(=O)(=O)NCCCCCCNc2ccc3c(c2)C(=O)N(C2CCC(=O)NC2=O)C3=O)C1` (stereo not given), the negative-log IC50 (pIC50) is greater than 8.00.
For `COc1cc(-c2cn(C)c(=O)c3cnccc23)cc(OC)c1CN(C)CC1CC2(C1)CN(C(=O)CCOCCOc1cccc3c1C(=O)N(C1CCC(=O)NC1=O)C3=O)C2` (stereo not given), the half-inhibitory concentration (IC50) entry was “in the range around 55 nM”.
As to `COc1cc(-c2cn(C)c(=O)c3cnccc23)cc(OC)c1CNCCOCC(=O)N1CC(COc2ccc3c(c2)C(=O)N(C2CCC(=O)NC2=O)C3=O)C1` (stereo not given), the half-maximal inhibitory concentration (IC50) result is “in the range around 550 nM”.
Same read-out and setting: to `COc1cc(-c2cn(C)c(=O)c3cnccc23)cc(OC)c1CN1CCC2(CC1)CN(C(=O)CCOCCOc1cccc3c1C(=O)N(C1CCC(=O)NC1=O)C3=O)C2` (stereo not given) belongs “in the range around 55 nM”.
Consider `COc1cc(-c2cn(C)c(=O)c3cnccc23)cc(OC)c1CN1CC(C(=O)NCCCCCCCCNC(=O)COc2cccc3c2C(=O)N(C2CCC(=O)NC2=O)C3=O)C1` (stereo not given), for which the half-inhibitory concentration (IC50) result is “in the range around 55 nM”.
The molecule `COc1cc(-c2cn(C)c(=O)c3cnccc23)cc(OC)c1CN(C)CC12CC(C(=O)NCCCCCNc3cccc4c3C(=O)N(C3CCC(=O)NC3=O)C4=O)(C1)C2` (stereo not given) showed a negative-log IC50 (pIC50) greater than 8.00.
Regarding `COc1cc(-c2cn(C)c(=O)c3cnccc23)cc(OC)c1CN1CCCC(OCc2cn(CCCCCOc3ccc4c(c3)C(=O)N(C3CCC(=O)NC3=O)C4=O)nn2)C1` (stereo not given), the pIC50 was greater than 8.00.
As to `COc1cc(-c2cn(C)c(=O)c3cnccc23)cc(OC)c1CN(C)C1CC2CN(C(=O)CCOCCOc3ccc4c(c3)C(=O)N(C3CCC(=O)NC3=O)C4=O)CC2C1` (stereo not given), the IC50 entry was “in the range around 55 nM”.
The molecule `COc1cc(-c2cn(C)c(=O)c3cnccc23)cc(OC)c1CN1CCC(OCc2cn(CCCCCOc3ccc4c(c3)C(=O)N(C3CCC(=O)NC3=O)C4=O)nn2)C1` (stereo not given) showed a negative-log IC50 (pIC50) greater than 8.00.
On to `COc1cc(-c2cn(C)c(=O)c3cnccc23)cc(OC)c1CN1CC2(C1)CN(C(=O)CCCCOc1cccc3c1C(=O)N(C1CCC(=O)NC1=O)C3=O)C2` (stereo not given), for which the pIC50 is greater than 8.00.
`COc1cc(-c2cn(C)c(=O)c3cnccc23)cc(OC)c1CN(C)NC(=O)CCCCC(=O)NC12CC(Nc3cccc4c3C(=O)N(C3CCC(=O)NC3=O)C4=O)(C1)C2` (stereo not given) showed a pIC50 greater than 8.00.
On the same count and under the same terms, to `COc1cc(-c2cn(C)c(=O)c3cnccc23)cc(OC)c1CN1CCC2CCN(C(=O)CCOCCOc3ccc4c(c3)C(=O)N(C3CCC(=O)NC3=O)C4=O)CC21` (stereo not given) belongs greater than 8.00.
Regarding `COc1cc(-c2cn(C)c(=O)c3cnccc23)cc(OC)c1CN(C)CC1CC2(CCN(C(=O)CCOCCOc3ccc4c(c3)C(=O)N(C3CCC(=O)NC3=O)C4=O)CC2)CO1` (stereo not given), the pIC50 was greater than 8.00.
In turn, `COc1cc(-c2cn(C)c(=O)c3cnccc23)cc(OC)c1CN(C)CCCN1CCC(Oc2ccc3c(c2)C(=O)N(C2CCC(=O)NC2=O)C3=O)CC1` (stereo not given) had a negative logarithm of the IC50 (pIC50) greater than 8.00.
Turning to `COc1cc(-c2cn(C)c(=O)c3cnccc23)cc(OC)c1CN1CCCC(OCc2cn(CCCCOc3ccc4c(c3)C(=O)N(C3CCC(=O)NC3=O)C4=O)nn2)C1` (stereo not given), the half-inhibitory concentration (IC50) entry is “in the range around 55 nM”.
With `COc1cc(-c2cn(C)c(=O)c3cnccc23)cc(OC)c1CN1CCC2(CCN(C(=O)CCOCCOc3ccc4c(c3)C(=O)N(C3CCC(=O)NC3=O)C4=O)CC2)C1` (stereo not given), the IC50 result was “in the range around 55 nM”.
Consider `COc1cc(-c2cn(C)c(=O)c3cnccc23)cc(OC)c1CN1CCC2(CCN(C(=O)CCOCCOc3ccc4c(c3)C(=O)N(C3CCC(=O)NC3=O)C4=O)C2)C1` (stereo not given), for which the IC50 entry is “in the range around 55 nM”.
As to `COc1cc(-c2cn(C)c(=O)c3cnccc23)cc(OC)c1CN1CCC(OCc2cn(CCOCCOc3ccc4c(c3)C(=O)N(C3CCC(=O)NC3=O)C4=O)nn2)C1` (stereo not given), the half-inhibitory concentration (IC50) result was “in the range around 55 nM”.
On to `COc1cc(-c2cn(C)c(=O)c3cnccc23)cc(OC)c1CN(C)Cc1cn(CCCOc2ccc3c(c2)C(=O)N(C2CCC(=O)NC2=O)C3=O)nn1` (stereo not given), for which the IC50 entry is “in the range around 550 nM”.
For `COc1cc(-c2cn(C)c(=O)c3cnccc23)cc(OC)c1CN1CCN(C(=O)C2CC2CNC(=O)COc2cccc3c2C(=O)N(C2CCC(=O)NC2=O)C3=O)CC1` (stereo not given), the half-maximal inhibitory concentration (IC50) entry was “in the range around 550 nM”.
Same read-out and setting: to `COc1cc(-c2cn(C)c(=O)c3cnccc23)cc(OC)c1CN1CCC(OCc2cn(-c3ccc4c(c3)C(=O)N(C3CCC(=O)NC3=O)C4=O)nn2)C1` (stereo not given) belongs “in the range around 55 nM”.

For the origin of these results see ChEMBL document CHEMBL5729561, “Compounds and uses thereof” (2023).
